Measurements taken from ChEMBL document CHEMBL5241114, “A comprehensive review of BET-targeting PROTACs for cancer therapy” (Bioorg Med Chem, 2022).

Legend:
[1] = molecular target: T1, Bromodomain-containing protein 4 (Homo sapiens, UniProt O60885); experiment: Induction of BRD4 degradation in human MDA-MB-468 cells at 0.5 uM measured at 48 hrs relative to control; assay type: cell-based
MDA-MB-468 = experiment: Antiproliferative activity against human MDA-MB-468 cells assessed as cell growth inhibition; assay type: functional
MDA-MB-231 = experiment: Antiproliferative activity against human MDA-MB-231 cells assessed as cell growth inhibition; assay type: functional
[2] = molecular target: T1, Bromodomain-containing protein 4; experiment: Induction of BRD4 degradation in human HEK293T cells; assay type: cell-based
[3] = molecular target: T1, Bromodomain-containing protein 4; experiment: Induction of BRD4 degradation in human 231MFP cells; assay type: cell-based; details: 231mfp
[4] = molecular target: T1, Bromodomain-containing protein 4; experiment: Induction of BRD4 degradation in human HEK293T cells at 10 uM measured at 6 hrs relative to control; assay type: cell-based
[5] = molecular target: T1, Bromodomain-containing protein 4; experiment: Induction of BRD4 degradation in human HAP1 cells; assay type: cell-based
[6] = molecular target: T1, Bromodomain-containing protein 4; experiment: Induction of BRD4 degradation in human HCT-116 cells assessed as downregulation of c-Myc expression; assay type: cell-based
SUD4 = experiment: Antiproliferative activity against human SU-DHL-4 cells assessed as reduction in cell viability measured after 48 hrs by MTT assay; assay type: functional
[7] = molecular target: T1, Bromodomain-containing protein 4; experiment: Induction of BRD4 degradation in human MV4-11 cells measured after 12 hrs; assay type: cell-based
[8] = molecular target: T1, Bromodomain-containing protein 4; experiment: Induction of BRD4 degradation in human MV4-11 cells measured after 24 hrs; assay type: cell-based
[9] = molecular target: T1, Bromodomain-containing protein 4; experiment: Induction of BRD4 degradation in human HD-MB03 cells measured after 12 hrs; assay type: cell-based
[10] = molecular target: T1, Bromodomain-containing protein 4; experiment: Induction of BRD4 degradation in human HD-MB03 cells at 100 nM measured at 72 hrs relative to control; assay type: cell-based
MV4-11 [11] = experiment: Cytotoxicity against human MV4-11 cells; assay type: functional, cell-based
MV4-11 [12] = experiment: Cytotoxicity against human MV4-11 cells measured after 96 hrs; assay type: functional, cell-based; details: MV4-11, 96 h
[13] = molecular target: T1, Bromodomain-containing protein 4; experiment: Induction of BRD4 degradation in human SU-DHL-4 measured after 72 hrs; assay type: cell-based
[14] = molecular target: T1, Bromodomain-containing protein 4; experiment: Induction of BRD4 degradation in human SU-DHL-4 measured after 72 hrs relative to control; assay type: cell-based
[15] = molecular target: Protein fem-1 homolog B/Folliculin-interacting protein 1 (Homo sapiens, UniProt Q8TF40+Q9UK73); experiment: Inhibition of FEMIB/FNIP1 interaction in human HEK293T cells; assay type: cell-based
Chain of Protein fem-1 homolog B/Folliculin-interacting protein 1 (Q8TF40 whole entry): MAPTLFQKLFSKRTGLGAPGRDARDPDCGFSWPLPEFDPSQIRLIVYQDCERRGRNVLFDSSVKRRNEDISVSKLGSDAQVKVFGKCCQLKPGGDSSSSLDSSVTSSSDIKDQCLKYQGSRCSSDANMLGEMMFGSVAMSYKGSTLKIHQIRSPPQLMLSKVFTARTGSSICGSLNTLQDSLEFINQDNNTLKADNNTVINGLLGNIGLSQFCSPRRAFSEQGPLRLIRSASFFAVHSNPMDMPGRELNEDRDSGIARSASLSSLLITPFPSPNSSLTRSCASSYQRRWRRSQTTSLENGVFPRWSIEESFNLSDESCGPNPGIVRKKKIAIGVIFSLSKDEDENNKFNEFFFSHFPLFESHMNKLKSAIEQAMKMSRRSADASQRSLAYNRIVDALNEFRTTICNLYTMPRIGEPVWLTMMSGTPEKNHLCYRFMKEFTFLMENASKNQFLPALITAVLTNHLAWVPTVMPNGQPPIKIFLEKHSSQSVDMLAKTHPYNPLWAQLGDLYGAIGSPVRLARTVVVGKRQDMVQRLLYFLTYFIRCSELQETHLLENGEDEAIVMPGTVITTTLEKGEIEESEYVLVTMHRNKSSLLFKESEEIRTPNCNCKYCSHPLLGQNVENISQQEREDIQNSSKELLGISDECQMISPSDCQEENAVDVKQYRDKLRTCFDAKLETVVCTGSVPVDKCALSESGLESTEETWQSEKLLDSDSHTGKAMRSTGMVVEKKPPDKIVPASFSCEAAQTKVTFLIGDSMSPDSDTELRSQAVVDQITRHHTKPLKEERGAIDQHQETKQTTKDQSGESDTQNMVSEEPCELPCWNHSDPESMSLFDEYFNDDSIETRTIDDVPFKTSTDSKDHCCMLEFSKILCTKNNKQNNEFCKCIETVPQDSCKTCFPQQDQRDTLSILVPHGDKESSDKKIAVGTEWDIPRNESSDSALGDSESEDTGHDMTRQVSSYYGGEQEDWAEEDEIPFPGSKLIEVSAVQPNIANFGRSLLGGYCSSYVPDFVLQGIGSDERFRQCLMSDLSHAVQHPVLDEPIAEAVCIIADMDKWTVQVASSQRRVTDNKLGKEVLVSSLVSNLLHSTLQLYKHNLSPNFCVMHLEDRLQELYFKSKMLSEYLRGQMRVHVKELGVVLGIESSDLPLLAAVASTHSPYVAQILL
Chain of Protein fem-1 homolog B/Folliculin-interacting protein 1 (Q9UK73 whole entry): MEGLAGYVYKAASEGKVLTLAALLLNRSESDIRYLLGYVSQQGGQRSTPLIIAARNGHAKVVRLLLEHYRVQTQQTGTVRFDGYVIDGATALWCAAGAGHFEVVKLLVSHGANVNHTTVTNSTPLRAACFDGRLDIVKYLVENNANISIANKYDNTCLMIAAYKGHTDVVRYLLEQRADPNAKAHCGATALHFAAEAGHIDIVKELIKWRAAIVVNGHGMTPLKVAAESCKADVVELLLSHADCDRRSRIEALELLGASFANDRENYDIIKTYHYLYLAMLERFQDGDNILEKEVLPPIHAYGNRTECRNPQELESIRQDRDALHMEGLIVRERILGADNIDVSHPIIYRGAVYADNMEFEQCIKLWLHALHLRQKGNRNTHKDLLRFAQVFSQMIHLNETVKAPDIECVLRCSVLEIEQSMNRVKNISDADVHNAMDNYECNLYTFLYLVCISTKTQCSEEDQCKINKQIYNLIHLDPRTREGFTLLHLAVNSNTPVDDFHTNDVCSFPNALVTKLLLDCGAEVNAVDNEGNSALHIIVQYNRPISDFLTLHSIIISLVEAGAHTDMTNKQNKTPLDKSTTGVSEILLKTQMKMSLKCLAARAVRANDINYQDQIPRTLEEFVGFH

[16] = molecular target: Folliculin-interacting protein 1 (Homo sapiens, UniProt Q8TF40); experiment: Inhibition of FNIP1 in human HEK293T cells; assay type: cell-based
Chain of Folliculin-interacting protein 1 (Q8TF40 whole entry): as the sequence (Q8TF40 whole entry) above

`CCOC(=O)C[C@H](c1ccc(C)c(CN2C[C@H](C)Oc3ccccc3S2(=O)=O)c1)c1cc(OCCNC(=O)CNC(=O)C[C@H]2N=C(c3ccc(Cl)cc3)c3c(sc(C)c3C)-n3c(C)nnc32)c2c(c1)nnn2C` showed an Emax [1] of 80%, a GI50 (MDA-MB-468) of 280 nM and a GI50 (MDA-MB-231) of 130 nM.
With `C#CCCCC(=O)N1CCOc2ccc(N(CCC#N)C(=O)CCl)cc21` the DC50 [2] was 250 nM, the DC50 [3] was 196 nM and the Emax [4] was 94%. For the same compound, the DC50 [5] was 313 nM.
In the case of `COc1cc(C(=O)NCCOCCOCCOCCNC(=O)C[C@@H]2N=C(c3ccc(Cl)cc3)c3c(sc(C)c3C)-n3c(C)nnc32)ccc1NC(=O)[C@@H]1N[C@@H](CC(C)(C)C)[C@](C#N)(c2ccc(Cl)cc2F)[C@H]1c1cccc(Cl)c1F`, the DC50 [6] is reported as 36 nM and the GC50 (SUD4) is reported as 25170 nM.
`Cc1sc2c(c1C)C(c1ccc(Cl)cc1)=N[C@@H](CC(=O)NCCCCCNC(=O)COc1ccc(C3CCC(=O)NC3=O)cc1)c1nnc(C)n1-2` (stereo not given in full) was tested, and the DC50 [7] was 0.87 nM, the DC50 [8] was 0.16 nM and the DC50 [9] was 24 nM. For the same compound, the Emax [10] was 87%, the IC50 (MV4-11 [11]) was 1.83 nM and the IC50 (MV4-11 [12]) was 0.003 nM.
In the case of `Cc1sc2c(c1C)C(c1ccc(Cl)cc1)=N[C@@H](CC(=O)NCCOCCOCCNC(=O)c1cccc(S(=O)(=O)Nc3ccc(C)c4c(C#N)c[nH]c34)c1)c1nnc(C)n1-2`, the DC50 [13] is reported as 10800 nM, the Emax [14] is reported as 98% and the GC50 (SUD4) is reported as 4640 nM.
With `N#CCCN(C(=O)CCl)c1ccc2c(c1)OCCO2` the IC50 [15] was 2200 nM and the IC50 [16] was 670 nM.
